For 52 compounds, IC50 results are on record in patent US7566718B2, “Amine-linked pyridyl and phenyl substituted piperazine-piperidines with CXCR3 antagonist activity” (Schering Corporation, priority 2005, dated 2009).

Usually IC50 stands for the concentration needed to halve the response being measured.

The target in the assay is T1, human CXCR3 (N-delta 4) (Homo sapiens, UniProt P49682).
T1 construct: CD8 leader (N); Flag tag; expressed in transfected cells; membrane preparation
T1 sequence (P49682 5-368 limits assumed): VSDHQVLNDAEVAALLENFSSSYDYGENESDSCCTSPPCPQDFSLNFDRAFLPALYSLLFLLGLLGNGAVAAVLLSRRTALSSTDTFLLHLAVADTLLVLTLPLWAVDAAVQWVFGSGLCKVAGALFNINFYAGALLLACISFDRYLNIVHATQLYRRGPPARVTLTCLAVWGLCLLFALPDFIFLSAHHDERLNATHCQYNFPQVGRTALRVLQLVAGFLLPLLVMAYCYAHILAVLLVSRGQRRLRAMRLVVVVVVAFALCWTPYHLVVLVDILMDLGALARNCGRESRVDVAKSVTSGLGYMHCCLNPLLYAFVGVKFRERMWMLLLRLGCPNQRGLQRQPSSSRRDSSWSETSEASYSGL
As to the kind of experiment: Human CXCR3 (N-delta 4) scintillation proximity assay (SPA), [125I] IP-10 binding to Ba/F3-hCXCR3 membranes. Particulars: IC50 rating; [125I] IP-10 displacement, human CXCR3; read-out: IC50. A digest of the protocol: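 Membranes from Ba/F3 cells expressing Flag-tagged hCXCR3 (N-delta 4), 2 μg/point, precoupled to WGA SPA beads. Binding of 25 pM [125I] IP-10 measured with titrated compounds, 3 hr at room temperature, in HEPES buffer with CaCl2, MgCl2, NaCl and 1.0% BSA; bound tracer read by scintillation counting.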
A general note: In a scintillation proximity assay essentially only radioactivity close to the scintillant gives light.
As to `C[C@@H]1CN(c2ncc(Nc3c(NCC(F)(F)F)c(=O)c3=O)cc2Cl)[C@@H](C)CN1C1CCN(Cc2ccc(-c3ccccc3)cc2)CC1` [Compound 135], the half-inhibitory concentration (IC50) is over 100 nM.

For `C[C@@H]1CN(c2ncc(Nc3c(NCC(F)(F)F)c(=O)c3=O)cc2Cl)[C@@H](C)CN1C1CCN(Cc2cccc(Br)c2)CC1` [Compound 136], the IC50 is over 100 nM.

`C[C@@H]1CN(c2ncc(Nc3c(NCC(F)(F)F)c(=O)c3=O)cc2Cl)[C@@H](C)CN1C1CCN(Cc2ccccc2OCC(=O)O)CC1` [Compound 137]: the IC50 is over 100 nM.

In the case of `C[C@@H]1CN(c2ncc(Nc3c(NCC(F)(F)F)c(=O)c3=O)cc2Cl)[C@@H](C)CN1C1CCN(Cc2ccccc2Sc2ccc(Cl)cc2)CC1` [Compound 138], the IC50 is over 100 nM.

Turning to `CC[C@H]1CN(c2ncc(Nc3c(NCC(=O)OC(C)(C)C)c(=O)c3=O)cc2Cl)CCN1C1CCN([C@@H](CO)c2ccc(Cl)cc2)CC1` [Compound 139], the IC50 was over 100 nM.

Regarding `Cc1cc(OCc2ccccc2)cc(C)c1C(=O)N1CCC(N2C[C@H](C)N(c3ncc(Nc4c(NCC(F)(F)F)c(=O)c4=O)cc3Cl)C[C@H]2C)CC1` [Compound 140], the IC50 is over 100 nM.

With `Cc1cc(Nc2c(NCC(F)(F)F)c(=O)c2=O)cnc1N1C[C@@H](C)N(C2CCN(C(=O)c3ccc(Cl)cc3)CC2)C[C@@H]1C` [Compound 141], the IC50 was over 100 nM.

As to `C[C@@H]1CN(c2ncc(Nc3c(NCC(F)(F)F)c(=O)c3=O)cc2Cl)[C@@H](C)CN1C1CCN(Cc2ccco2)CC1` [Compound 142], the IC50 was over 100 nM.

For the compound `C[C@@H]1CN(c2ncc(Nc3c(NCC(F)(F)F)c(=O)c3=O)cc2Cl)[C@@H](C)CN1C1CCN(Cc2cccc(C#N)c2)CC1` [Compound 143], the IC50 is over 100 nM.

For `CCC(C)(C)C1CCC(N2CCC(N3C[C@H](C)N(c4ncc(Nc5c(NCC(F)(F)F)c(=O)c5=O)cc4Cl)C[C@H]3C)CC2)C1` (stereo partly shown) [Compound 144], the IC50 was over 100 nM.

For `C[C@@H]1CN(c2ncc(Nc3c(NCC(F)(F)F)c(=O)c3=O)cc2Cl)[C@@H](C)CN1C1CCN(C2CCCC(C(F)(F)F)C2)CC1` (stereo partly shown) [Compound 145], the half-inhibitory concentration (IC50) was over 100 nM.

Take `C[C@@H]1CN(c2ncc(Nc3c(NCC(F)(F)F)c(=O)c3=O)cc2Cl)[C@@H](C)CN1C1CCN(C2CCC(c3ccccc3)CC2)CC1` (stereo partly shown) [Compound 146]: the IC50 was over 100 nM.

Turning to `CC(=O)Nc1ccc(CN2CCC(N3C[C@H](C)N(c4ncc(Nc5c(NCC(F)(F)F)c(=O)c5=O)cc4Cl)C[C@H]3C)CC2)cc1` [Compound 147], the concentration for half-maximal inhibition (IC50) is over 100 nM.

For `CC[C@H]1CN(c2ncc(N(Cc3ccc(C#N)cc3)c3c(C(C)C)c(=O)c3=O)cc2Cl)CCN1C1CCN(Cc2ccc(C#N)cc2)CC1` [Compound 148], the IC50 is over 100 nM.

In the case of `CC[C@H]1CN(c2ncc(Nc3c(NC4CC4)c(=O)c3=O)cc2Cl)CCN1C1CCN([C@H](C(=O)NC)c2ccc(Cl)cc2)CC1` [Compound 149], the IC50 is over 100 nM.

Take `C[C@@H]1CN(c2ncc(Nc3c(NCC(F)(F)F)c(=O)c3=O)cc2Cl)[C@@H](C)CN1C1CCN(CCC(C)(C)C)CC1` [Compound 150]: the half-maximal inhibitory concentration (IC50) was over 100 nM.

`COC1CCCC(CN2CCC(N3C[C@H](C)N(c4ncc(Nc5c(NCC(F)(F)F)c(=O)c5=O)cc4Cl)C[C@H]3C)CC2)O1` (stereo partly shown) [Compound 151]: the IC50 is over 100 nM.

`C[C@@H]1CN(c2ncc(Nc3c(NCC(F)(F)F)c(=O)c3=O)cc2Cl)[C@@H](C)CN1C1CCN(Cc2nccs2)CC1` [Compound 152]: the 50% inhibitory concentration (IC50) was over 100 nM.

For the compound `C[C@@H]1CN(c2ncc(Nc3c(NCC(F)(F)F)c(=O)c3=O)cc2Cl)[C@@H](C)CN1C1CCN(Cc2ccccc2O)CC1` [Compound 153], the IC50 is over 100 nM.

For `COc1ccccc1CN1CCC(N2C[C@H](C)N(c3ncc(Nc4c(NCC(F)(F)F)c(=O)c4=O)cc3Cl)C[C@H]2C)CC1` [Compound 154], the concentration for half-maximal inhibition (IC50) is over 100 nM.

Take `C[C@@H]1CN(c2ncc(Nc3c(NCC(F)(F)F)c(=O)c3=O)cc2Cl)[C@@H](C)CN1C1CCN(Cc2ccccc2Cl)CC1` [Compound 155]: the half-maximal inhibitory concentration (IC50) was over 100 nM.

Take `C[C@@H]1CN(c2ncc(Nc3c(NCC(F)(F)F)c(=O)c3=O)cc2Cl)[C@@H](C)CN1C1CCN(Cc2csc3ccccc23)CC1` [Compound 156]: the IC50 is over 100 nM.

As for `C[C@@H]1CN(c2ncc(Nc3c(NCC(F)(F)F)c(=O)c3=O)cc2Cl)[C@@H](C)CN1C1CCN(Cc2cccc(C(F)(F)F)c2)CC1` [Compound 157], the IC50 was over 100 nM.

`C[C@@H]1CN(c2ncc(Nc3c(NCC(F)(F)F)c(=O)c3=O)cc2Cl)[C@@H](C)CN1C1CCN(Cc2cccc(Cl)c2Cl)CC1` [Compound 158]: the 50% inhibitory concentration (IC50) was over 100 nM.

With `C[C@@H]1CN(c2ncc(Nc3c(NCC(F)(F)F)c(=O)c3=O)cc2Cl)[C@@H](C)CN1C1CCN(Cc2cc(Cl)cc(Cl)c2)CC1` [Compound 159], the IC50 was over 100 nM.

Consider `C[C@@H]1CN(c2ncc(Nc3c(NCC(F)(F)F)c(=O)c3=O)cc2Cl)[C@@H](C)CN1C1CCN(CC(c2ccccc2)c2ccccc2)CC1` [Compound 160], for which the concentration for half-maximal inhibition (IC50) was over 100 nM.

Consider `C[C@@H]1CN(c2ncc(Nc3c(NCC(F)(F)F)c(=O)c3=O)cc2Cl)[C@@H](C)CN1C1CCN(Cc2ccc(Oc3ccccc3)cc2)CC1` [Compound 161], for which the concentration for half-maximal inhibition (IC50) was over 100 nM.

For `C[C@@H]1CN(c2ncc(Nc3c(NCC(F)(F)F)c(=O)c3=O)cc2Cl)[C@@H](C)CN1C1CCN(C2CCCC2)CC1` [Compound 162], the IC50 is over 100 nM.

For `CC1CCCC(N2CCC(N3C[C@H](C)N(c4ncc(Nc5c(NCC(F)(F)F)c(=O)c5=O)cc4Cl)C[C@H]3C)CC2)C1` (stereo partly shown) [Compound 163], the half-inhibitory concentration (IC50) is over 100 nM.

With `Cc1cc(Nc2c(NCC(F)(F)F)c(=O)c2=O)cnc1N1C[C@@H](C)N(C2CCN(C(=O)c3ccc(C(F)(F)F)cc3)CC2)C[C@@H]1C` [Compound 164], the IC50 was over 100 nM.

`Cc1cc(Nc2c(NCC(F)(F)F)c(=O)c2=O)cnc1N1C[C@@H](C)N(C2CCN(C(=O)c3c(C)noc3C)CC2)C[C@@H]1C` [Compound 165]: the half-inhibitory concentration (IC50) is over 100 nM.

Turning to `Cc1cc(Nc2c(NCC(F)(F)F)c(=O)c2=O)cnc1N1C[C@@H](C)N(C2CCN(C(=O)C3Cc4ccccc4C3)CC2)C[C@@H]1C` [Compound 166], the concentration for half-maximal inhibition (IC50) is over 100 nM.

As for `CC[C@H]1CN(c2ncc(Nc3c(NC4CC4)c(=O)c3=O)cc2Cl)CCN1C1CCN([C@@H](C(N)=O)c2ccc(Cl)cc2)CC1` [Compound 167], the IC50 is over 100 nM.

As to `CC(C)C1CCC(N2CCC(N3C[C@H](C)N(c4ncc(Nc5c(NCC(F)(F)F)c(=O)c5=O)cc4Cl)C[C@H]3C)CC2)CC1` (stereo partly shown) [Compound 169], the IC50 was over 100 nM.

Regarding `CCC(C)CN1CCC(N2C[C@H](C)N(c3ncc(Nc4c(NCC(F)(F)F)c(=O)c4=O)cc3Cl)C[C@H]2C)CC1` (stereo partly shown) [Compound 170], the IC50 was over 100 nM.

For `CCC(C)(C)C1CCC(N2CCC(N3C[C@H](C)N(c4ncc(Nc5c(NCC(F)(F)F)c(=O)c5=O)cc4Cl)C[C@H]3C)CC2)C1` (stereo partly shown) [Compound 171], the IC50 was over 100 nM.

Consider `C[C@@H]1CN(c2ncc(Nc3c(NCC(F)(F)F)c(=O)c3=O)cc2Cl)[C@@H](C)CN1C1CCN(C2CCCC(C(F)(F)F)C2)CC1` (stereo partly shown) [Compound 172], for which the 50% inhibitory concentration (IC50) was over 100 nM.

On to `C[C@@H]1CN(c2ncc(Nc3c(NCC(F)(F)F)c(=O)c3=O)cc2Cl)[C@@H](C)CN1C1CCN(C2CCC(c3ccccc3)CC2)CC1` (stereo partly shown) [Compound 173], for which the 50% inhibitory concentration (IC50) was over 100 nM.

Regarding `CC1CCCC(N2CCC(N3C[C@H](C)N(c4ncc(Nc5c(NCC(F)(F)F)c(=O)c5=O)cc4Cl)C[C@H]3C)CC2)C1` (stereo partly shown) [Compound 176], the IC50 was over 100 nM.

Regarding `CC[C@H]1CN(c2ncc(NC(C)=O)cc2Cl)CCN1C1CCN(Cc2ccc(Cl)cc2F)CC1` [Compound 177], the concentration for half-maximal inhibition (IC50) was under 25 nM.

For `CC[C@H]1CN(c2ncc(NC(=O)C(C)C)cc2Cl)CCN1C1CCN(Cc2ccc(Cl)cc2F)CC1` [Compound 178], the half-inhibitory concentration (IC50) was under 25 nM.

In the case of `CC[C@H]1CN(c2ncc(-n3cn[nH]c3=O)cc2Cl)CCN1C1CCN(Cc2ccc(Cl)cc2F)CC1` [Compound 179], the IC50 was under 25 nM.

For the compound `CC[C@H]1CN(c2ncc(NC(=O)C3CC3)cc2Cl)CCN1C1CCN(Cc2ccc(Cl)cc2F)CC1` [Compound 180], the IC50 is under 25 nM.

For `CC(=O)Nc1cnc(N2CCN(C3CCN(Cc4ccc(Cl)cc4)CC3)[C@@H](C)C2)c(Cl)c1` [Compound 181], the IC50 is under 25 nM.

For `CC[C@H]1CN(c2ncc(NC(=O)NC)cc2Cl)CCN1C1CCN(Cc2ccc(Cl)cc2F)CC1` [Compound 182], the IC50 was under 25 nM.

Take `CCNC(=O)Nc1cnc(N2CCN(C3CCN(Cc4ccc(Cl)cc4F)CC3)[C@@H](CC)C2)c(Cl)c1` [Compound 183]: the IC50 is under 25 nM.

On to `C[C@H]1CN(c2ncc(NC(=O)C3CC3)cc2Cl)CCN1C1CCN(Cc2ccc(Cl)cc2)CC1` [Compound 184], for which the IC50 was under 25 nM.

`CC[C@H]1CN(c2ncc(NC(=O)NC3CC3)cc2Cl)CCN1C1CCN(Cc2ccc(Cl)cc2F)CC1` [Compound 185]: the IC50 was under 25 nM.

With `CC[C@H]1CN(c2ncc(NC(N)=O)cc2Cl)CCN1C1CCN(Cc2ccc(Cl)cc2F)CC1` [Compound 186], the half-maximal inhibitory concentration (IC50) was 25 to 100 nM.

Consider `CCC(=O)Nc1cnc(N2CCN(C3CCN(Cc4ccc(Cl)cc4)CC3)[C@@H](C)C2)c(Cl)c1` [Compound 187], for which the IC50 is 25 to 100 nM.

Take `CC[C@H]1CN(c2ncc(NC(=O)NN)cc2Cl)CCN1C1CCN(Cc2ccc(Cl)cc2F)CC1` [Compound 188]: the IC50 is 25 to 100 nM.

`CC[C@H]1CN(c2ncc(NC(=O)Oc3ccccc3)cc2Cl)CCN1C1CCN(Cc2ccc(Cl)cc2F)CC1` [Compound 189]: the IC50 was 25 to 100 nM.
